Measurements taken from patent publication US20060002866A1, “Method for protecting the skin from aging” (priority 2002, published 2006).

Tested on: lumican mRNA in MRC5 fibroblasts
Experiment: Stimulation of the lumican mRNA content in MRC5 fibroblasts (Northern Blot)
Type: cell-based, human
Conditions: for Mean value [mRNA lumican/36B4 mRNA]: MRC5 fibroblasts, lumican mRNA against housekeeping gene 36B4 mRNA
Protocol: Northern Blot technique for determining the RNA messengers in cells of low molecular weight proteoglycans, such as lumican and syndecan.
The stimulation of the lumican mRNA content in MRC5 fibroblasts incubated with increasing concentrations of the growth factor IGF-1 (Insulin-like Growth Factor 1, Sigma-Aldrich) was investigated. The content of mRNA of the proteoglycan lumican in cultures of human fibroblasts—MRC5 fibroblasts—was determined by the Northern Blot method.

Substance: IGF-1: growth factor IGF-1 (Insulin-like Growth Factor 1, Sigma-Aldrich)
- Mean value [mRNA lumican/36B4 mRNA] (IGF-1 0.1 ng/ml): 1.38
- Mean value [mRNA lumican/36B4 mRNA] (IGF-1 1 ng/ml): 2
- Mean value [mRNA lumican/36B4 mRNA] (IGF-1 10 ng/ml): 3.2
- Effect on mRNA content for lumican (cultures of MRC5 fibroblasts): increases the mRNA content for lumican
